Reference: patent US6956040B2, “Oxazolidinone piperazinyl derivatives as potential antimicrobials” (Ranbaxy Laboratories Limited, priority 2001, dated 2005)

Key:
E. faecalis 29212 = experiment: MIC, agar incorporation method; format: cell-based, Enterococcus faecalis; details: E. faecalis 29212; agar incorporation
Outline: (§1)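 Mueller Hinton agar with twofold compound dilutions (DMSO stocks); inoculum 0.5 McFarland, 10^4 CFU/spot; 18 h incubation, 24 h for MRSN work; MIC = no-growth concentration, μg/ml. Runs accepted only if standard antibiotics gave in-range MICs on ATCC reference strains.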

VRE 6A = experiment: MIC, agar incorporation method; format: cell-based, Enterococcus faecium; details: VRE 6A; agar incorporation
Outline: as §1

[1] = Changes in MIC under different conditions: Broth MIC; format: cell-based; details: strain not given
MRSA 562 [2] = experiment: In vivo activity against MRSA 562 (ED50); design: species or system Staphylococcus aureus
S. pneumoniae = experiment: Summary of in vitro activity (MIC) against S. pneumoniae; format: cell-based, Streptococcus pneumoniae; details: S. pneumoniae, Number 19
Method: (§2) The compounds of the invention display antibacterial activity when tested by the agar incorporation method. The following minimum inhibitory concentrations (μg/ml) were obtained for representative compounds of the invention which are given below in the following tables.
(§3) Briefly, the compounds were dissolved in DMSO and doubling dilution of the compounds were incorporated into Meuller Hilton agar before solidification. Inoculum was prepared by suspending 4 to 5 colonies into 5 ml of normal saline solution and adjusting the turbidity to 0.5 Macfarland turbidity standard tables (1.5×10^8 CFU/ml), after appropriate dilutions, 10^4 CFU/spot was transfered into the surface of dried plate and incubated for 18 hours (24 hours for MRSN studies). The concentration showing no growth of the inoculated culture was recorded as the MIC. Appropriate ATCC standard strains were simultaneously tested and result recorded only when the MIC's against standard antibiotics were within the acceptable range.

E. faecalis = experiment: Summary of in vitro activity (MIC) against E. faecalis; format: cell-based, Enterococcus faecalis; details: E. faecalis, Number 7
Method: as §2, §3

S. pneum AB 34 = experiment: MIC, agar incorporation method; format: cell-based, Streptococcus pneumoniae; details: S. pneum AB 34; agar incorporation
Outline: (§4)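 MIC values (μg/ml) come from plates of Mueller Hinton agar with incorporated twofold compound series, inoculated at 10^4 CFU/spot. Incubation lasts 18 h (24 h in MRSN work); results count only when standard antibiotics against ATCC strains fall within acceptable ranges.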

S. pneum 6303 = experiment: MIC, agar incorporation method; format: cell-based, Streptococcus pneumoniae; details: S. pneum 6303; agar incorporation
Outline: as §1

S. pyogenes 19615 = experiment: MIC, agar incorporation method; format: cell-based, Streptococcus pyogenes; details: S. pyogenes 19615; agar incorporation
Outline: as §1

MRSA 15187 = experiment: MIC, agar incorporation method; format: cell-based, Staphylococcus aureus; details: MRSA 15187; agar incorporation
Outline: as §1

S. aureus 25923 = experiment: MIC, agar incorporation method; format: cell-based, Staphylococcus aureus; details: S. aureus 25923; agar incorporation
Outline: as §1

MRSA 33 = experiment: MIC, agar incorporation method; format: cell-based, Staphylococcus aureus; details: MRSA 33; agar incorporation
Outline: as §4

MRSA 562 [3] = experiment: MIC, agar incorporation method; format: cell-based, Staphylococcus aureus; details: MRSA 562
Outline: as §4

S. aureus = experiment: Summary of in vitro activity (MIC) against S. aureus; format: cell-based, Staphylococcus aureus; details: S. aureus, Number 8
Method: as §2, §3

[4] = Changes in MIC under different conditions: Agar MIC; format: cell-based; details: strain not given
Method: as §2, §3

G+ve = experiment: Summary of in vitro activity (MIC) against G+ve bacteria; format: cell-based; details: G+ve, Number 49
Method: as §2, §3

For CC(=O)NC[C@H]1CN(c2ccc(N3CCN(C(=O)c4ccc([N+](=O)[O-])s4)CC3)c(F)c2)C(=O)O1.Cl [Compound No. 29, (S)-N[[3-[3-Fluoro-4-[N-1[4-(5-nitro-2-thienoyl)]piperazinyl]-phenyl]2-oxo-5-oxazolidinyl]methyl]acetamide hydrochloride], the MIC (E. faecalis 29212) was 1 µg/mL, the MIC (VRE 6A) was 0.5 µg/mL and the “Broth MIC +50% Sheep serum” value ([1]; +50% Sheep serum) was 0.5 µg/mL. The “Broth MIC Normal MH broth” value ([1]; Normal MH broth) was 0.25 µg/mL, the “ED50 (mg/kg body weight) PO” value (MRSA 562 [2]) was >25 mg/kg body weight and the MIC50 (S. pneumoniae) was 1 µg/mL. The MIC90 (S. pneumoniae) was 1 µg/mL, the MIC50 (E. faecalis) was 1 µg/mL and the MIC90 (E. faecalis) was 1 µg/mL. For the same compound, the MIC (S. pneum AB 34) was 1 µg/mL, the MIC (S. pneum 6303) was 1 µg/mL and the MIC (S. pyogenes 19615) was 1 µg/mL. The MIC (MRSA 15187) was <0.1 µg/mL, the MIC (S. aureus 25923) was 0.25 µg/mL and the MIC (MRSA 33) was <0.1 µg/mL. For the same compound, the “MIC” value (MRSA 562 [3]; Table 5) was <0.1 µg/mL, the MIC (MRSA 562 [3]; agar incorporation, Table 1) was <0.1 µg/mL and the MIC50 (S. aureus) was 0.064 µg/mL. The MIC90 (S. aureus) was 0.25 µg/mL, the “Agar MIC” value [4] was <0.1 µg/mL and the MIC50 (G+ve) was 1 µg/mL. The MIC90 (G+ve) was 1 µg/mL.
